Series [1] addresses T1, Xanthine dehydrogenase/oxidase (Homo sapiens, UniProt P47989). Briefly: Inhibition of xanthine oxidase (unknown origin).
Series [2] can be described thus: Cytotoxicity against human THP-1 cells. In kind it is cell-based.
In series [3] the target is NACHT, LRR and PYD domains-containing protein 3 (Homo sapiens, UniProt Q96P20). The series can be described thus: Inhibition of NLRP3 in human THP1 cells assessed as inhibition of MSU-induced IL-1beta production. The series is classed as cell-based, THP-1.
Series [4] deals with Rattus norvegicus. The series can be described thus: Antiarthritic activity against MSU-induced acute gout arthritis rat model assessed as degree of ankle joint swelling at 10 mg/kg after 48 hrs (reference value: 3.4 +/- 0.5). The series is classed as functional.
Series [5] has as its system Rattus norvegicus. The series can be described thus: Antiarthritic activity against MSU-induced acute gout arthritis rat model assessed as degree of ankle joint swelling at 20 mg/kg after 12 hrs (reference value: 6.6 +/- 1.5). The series is classed as functional.
Series [6] relates to Rattus norvegicus. Briefly: Antiarthritic activity against MSU-induced acute gout arthritis rat model assessed as degree of ankle joint swelling at 5 mg/kg after 12 hrs (reference value: 6.6 +/- 1.5). The series is classed as functional.
The subject of series [7] is Rattus norvegicus. Briefly: Antiarthritic activity against MSU-induced acute gout arthritis rat model assessed as degree of ankle joint swelling at 5 mg/kg after 4 hrs (reference value: 8.8 +/- 1.7). In kind it is functional.
In series [8] the test system is Rattus norvegicus. The series can be described thus: Antiarthritic activity against MSU-induced acute gout arthritis rat model assessed as degree of ankle joint swelling at 5 mg/kg after 48 hrs (reference value: 3.4 +/- 0.5). The series is classed as functional.
For series [9], the species on record is Rattus norvegicus. The series can be described thus: Down regulation of MSU-induced ASC protein expression in synovial tissue of MSU-induced acute gout arthritis rat model by western blot analysis. In kind it is functional, organism-based. In general terms: Immunoblotting shows a protein as a band on a membrane.
Series [10] deals with Rattus norvegicus. The series can be described thus: Antiarthritic activity against MSU-induced acute gout arthritis rat model assessed as degree of ankle joint swelling at 10 mg/kg after 12 hrs (reference value: 6.6 +/- 1.5). In kind it is functional.
In series [11] the test system is Mus musculus. The series can be described thus: Antiarthritic activity in potassium oxonate-induced hyperuricemia mouse model assessed as reduction in uric acid level in serum at 5 to 20 mg/kg. The series is classed as functional, organism-based.
Series [12] relates to Rattus norvegicus. Briefly: Antiarthritic activity against MSU-induced acute gout arthritis rat model assessed as degree of ankle joint swelling at 20 mg/kg after 24 hrs (reference value: 5.6 +/- 1.8). In kind it is functional.
The subject of series [13] is Mus musculus. Briefly: In vivo inhibition of xanthine oxidase in mouse assessed as reduction of enzyme activity in liver at 5 mg/kg relative to control. In kind it is functional.
Series [14] deals with Rattus norvegicus. Briefly: Antiarthritic activity against MSU-induced acute gout arthritis rat model assessed as degree of ankle joint swelling at 10 mg/kg after 24 hrs (reference value: 5.6 +/- 1.8). In kind it is functional.
Series [15] relates to Rattus norvegicus. Briefly: Antiarthritic activity against MSU-induced acute gout arthritis rat model assessed as degree of ankle joint swelling at 20 mg/kg after 8 hrs (reference value: 7.8 +/- 1.6). The series is classed as functional.
Series [16] relates to Rattus norvegicus. The series can be described thus: Antiarthritic activity against MSU-induced acute gout arthritis rat model assessed as degree of ankle joint swelling at 5 mg/kg after 2 hrs (reference value: 7.5 +/- 1.6). In kind it is functional.
Series [17] deals with Rattus norvegicus. The series can be described thus: Antiarthritic activity against MSU-induced acute gout arthritis rat model assessed as degree of ankle joint swelling at 20 mg/kg after 2 hrs (reference value: 7.5 +/- 1.6). In kind it is functional.
Series [18] relates to Mus musculus. The series can be described thus: In vivo inhibition of xanthine oxidase in mouse assessed as reduction in enzyme activity in liver at 20 mg/kg relative to control. The series is classed as functional.
For series [19], the species on record is Rattus norvegicus. Briefly: Down regulation of MSU-induced NLRP3 protein expression in synovial tissue of MSU-induced acute gout arthritis rat model by western blot analysis. In kind it is functional, organism-based.
For series [20], the system named is Mus musculus. Briefly: In vivo inhibition of xanthine oxidase in mouse assessed as reduction in enzyme activity in liver at 10 mg/kg relative to control. In kind it is functional.
Series [21] relates to Rattus norvegicus. The series can be described thus: Antiarthritic activity against MSU-induced acute gout arthritis rat model assessed as degree of ankle joint swelling at 10 mg/kg after 2 hrs (reference value: 7.5 +/- 1.6). The series is classed as functional.
The test system of series [22] is Mus musculus. Briefly: In vivo inhibition of xanthine oxidase in potassium oxonate-induced hyperuricemia mouse model assessed as reduction in enzyme activity in liver at 20 mg/kg relative to control. The series is classed as functional.
Series [23] has as its system Rattus norvegicus. The series can be described thus: Antiarthritic activity against MSU-induced acute gout arthritis rat model assessed as degree of ankle joint swelling at 10 mg/kg after 4 hrs (reference value: 8.8 +/- 1.7). The series is classed as functional.
For series [24], the system named is Rattus norvegicus. The series can be described thus: Antiarthritic activity against MSU-induced acute gout arthritis rat model assessed as degree of ankle joint swelling at 10 mg/kg after 8 hrs (reference value: 7.8 +/- 1.6). In kind it is functional.
In series [25] the test system is Mus musculus. Briefly: In vivo inhibition of xanthine oxidase in potassium oxonate-induced hyperuricemia mouse model assessed as reduction enzyme activity in liver at 10 mg/kg relative to control. The series is classed as functional.
In series [26] the test system is Rattus norvegicus. The series can be described thus: Antiarthritic activity against MSU-induced acute gout arthritis rat model assessed as degree of ankle joint swelling at 20 mg/kg after 4 hrs (reference value: 8.8 +/- 1.7). In kind it is functional.
For series [27], the system named is Rattus norvegicus. The series can be described thus: Antiarthritic activity against MSU-induced acute gout arthritis rat model assessed as degree of ankle joint swelling at 5 mg/kg after 8 hrs (reference value: 7.8 +/- 1.6). The series is classed as functional.
Series [28] relates to Rattus norvegicus. The series can be described thus: Antiarthritic activity against MSU-induced acute gout arthritis rat model assessed as degree of ankle joint swelling at 20 mg/kg after 48 hrs (reference value: 3.4 +/- 0.5). The series is classed as functional.
Series [29] is filed under the species Rattus norvegicus. The series can be described thus: Down regulation of MSU-induced caspase-1 protein expression in synovial tissue of MSU-induced acute gout arthritis rat model by western blot analysis. In kind it is functional, organism-based.
For series [30], the target named is T1, Xanthine dehydrogenase/oxidase. Briefly: Competitive inhibition of xanthine oxidase (unknown origin) by Lineweaver-Burk plot analysis.
Series [31] relates to Mus musculus. The series can be described thus: In vivo inhibition of xanthine oxidase in potassium oxonate-induced hyperuricemia mouse model assessed as reduction in enzyme activity in liver at 5 mg/kg relative to control. The series is classed as functional.
The test system of series [32] is Rattus norvegicus. Briefly: Antiarthritic activity against MSU-induced acute gout arthritis rat model assessed as degree of ankle joint swelling at 5 mg/kg after 24 hrs (reference value: 5.6 +/- 1.8). In kind it is functional.
The subject of series [33] is Mus musculus. The series can be described thus: Antiarthritic activity in potassium oxonate-induced hyperuricemia mouse model assessed as reduction in uric acid level in serum at 10 mg/kg. In kind it is functional, organism-based.
For series [34], the system named is Rattus norvegicus. Briefly: Inhibition of MSU-induced ASC protein expression in synovial tissue of MSU-induced acute gout arthritis rat model at 10 mg/kg by western blot analysis. The series is classed as functional, organism-based.
For series [35], the species on record is Rattus norvegicus. Briefly: Antiarthritic activity against MSU-induced acute gout arthritis rat model assessed as degree of ankle joint swelling after 4 hrs (reference value: 8.8 +/- 1.7). The series is classed as functional.
Series [36] is filed under the species Rattus norvegicus. The series can be described thus: Antiarthritic activity against MSU-induced acute gout arthritis rat model assessed as degree of ankle joint swelling after 8 hrs (reference value: 7.8 +/- 1.6). In kind it is functional.
Series [37] is filed under the species Rattus norvegicus. Briefly: Antiarthritic activity in rat at model of acute gout arthritis assessed as effect on MSU-induced ankle joint swelling after 24 hrs (reference value: 5.6 +/- 1.8). The series is classed as functional.
The species entered for series [38] is Rattus norvegicus. The series can be described thus: Antiarthritic activity against MSU-induced acute gout arthritis rat model assessed as degree of ankle joint swelling after 24 hrs (reference value: 5.6 +/- 1.8). The series is classed as functional.
For series [39], the system named is Rattus norvegicus. Briefly: Inhibition of MSU-induced NLRP3 protein expression in synovial tissue of MSU-induced acute gout arthritis rat model at 10 mg/kg by western blot analysis. In kind it is functional, organism-based.
Series [40] is filed under the species Rattus norvegicus. Briefly: Antiarthritic activity against MSU-induced acute gout arthritis rat model assessed as degree of ankle joint swelling after 48 hrs (reference value: 3.4 +/- 0.5). In kind it is functional.
The species named for series [41] is Rattus norvegicus. Briefly: Antiarthritic activity against MSU-induced acute gout arthritis rat model assessed as degree of ankle joint swelling after 2 hrs (reference value: 7.5 +/- 1.6). In kind it is functional.
The test system of series [42] is Rattus norvegicus. The series can be described thus: Inhibition of MSU-induced caspase-1 protein expression in synovial tissue of MSU-induced acute gout arthritis rat model at 10 mg/kg by western blot analysis. In kind it is functional, organism-based.

The source made the active and inactive calls. No cut-off for these calls is given here.

For orientation: IC50 means the concentration that inhibits the measured activity by half. By CC50 is commonly meant the concentration at which the toxic effect on the cells reaches its halfway point. A lower CC50 goes with greater toxicity to the cells. As usually defined, the inhibition in vivo is how much of the control response was suppressed.

T1 sequence (P47989 whole entry): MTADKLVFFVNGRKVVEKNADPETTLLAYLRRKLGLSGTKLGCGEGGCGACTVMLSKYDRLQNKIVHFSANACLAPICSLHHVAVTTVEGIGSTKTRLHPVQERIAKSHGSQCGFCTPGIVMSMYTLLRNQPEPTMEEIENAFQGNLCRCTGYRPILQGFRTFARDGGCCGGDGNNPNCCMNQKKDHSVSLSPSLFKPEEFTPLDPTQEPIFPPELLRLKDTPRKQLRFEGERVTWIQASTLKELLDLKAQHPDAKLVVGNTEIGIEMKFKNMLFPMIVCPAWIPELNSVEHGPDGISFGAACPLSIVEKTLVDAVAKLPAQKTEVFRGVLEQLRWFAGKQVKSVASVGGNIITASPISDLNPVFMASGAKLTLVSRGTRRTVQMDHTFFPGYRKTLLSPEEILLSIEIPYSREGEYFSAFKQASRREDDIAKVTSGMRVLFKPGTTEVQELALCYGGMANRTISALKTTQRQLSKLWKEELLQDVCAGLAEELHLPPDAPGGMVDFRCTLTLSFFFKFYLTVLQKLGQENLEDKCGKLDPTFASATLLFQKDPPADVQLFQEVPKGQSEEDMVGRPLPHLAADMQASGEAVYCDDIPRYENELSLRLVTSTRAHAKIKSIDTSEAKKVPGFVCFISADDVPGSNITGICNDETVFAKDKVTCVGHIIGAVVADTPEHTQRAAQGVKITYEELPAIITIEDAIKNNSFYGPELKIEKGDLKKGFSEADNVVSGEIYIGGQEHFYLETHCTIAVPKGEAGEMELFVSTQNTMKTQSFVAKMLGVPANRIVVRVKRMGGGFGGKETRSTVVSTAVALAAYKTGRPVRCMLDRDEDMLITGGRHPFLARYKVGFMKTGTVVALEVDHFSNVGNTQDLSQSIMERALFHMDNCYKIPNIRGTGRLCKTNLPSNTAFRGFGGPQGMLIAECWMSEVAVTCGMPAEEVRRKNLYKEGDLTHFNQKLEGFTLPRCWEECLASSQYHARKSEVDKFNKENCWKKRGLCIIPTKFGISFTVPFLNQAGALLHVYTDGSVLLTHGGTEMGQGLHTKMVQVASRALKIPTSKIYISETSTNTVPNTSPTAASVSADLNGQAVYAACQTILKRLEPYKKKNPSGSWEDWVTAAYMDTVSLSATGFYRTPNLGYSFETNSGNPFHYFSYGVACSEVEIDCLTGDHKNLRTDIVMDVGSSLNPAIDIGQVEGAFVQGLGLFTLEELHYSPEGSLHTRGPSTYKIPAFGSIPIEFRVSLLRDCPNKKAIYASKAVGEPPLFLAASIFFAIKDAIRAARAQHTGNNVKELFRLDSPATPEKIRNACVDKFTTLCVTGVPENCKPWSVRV
NACHT, LRR and PYD domains-containing protein 3, sequence (Q96P20 whole entry, the tested form may be a part): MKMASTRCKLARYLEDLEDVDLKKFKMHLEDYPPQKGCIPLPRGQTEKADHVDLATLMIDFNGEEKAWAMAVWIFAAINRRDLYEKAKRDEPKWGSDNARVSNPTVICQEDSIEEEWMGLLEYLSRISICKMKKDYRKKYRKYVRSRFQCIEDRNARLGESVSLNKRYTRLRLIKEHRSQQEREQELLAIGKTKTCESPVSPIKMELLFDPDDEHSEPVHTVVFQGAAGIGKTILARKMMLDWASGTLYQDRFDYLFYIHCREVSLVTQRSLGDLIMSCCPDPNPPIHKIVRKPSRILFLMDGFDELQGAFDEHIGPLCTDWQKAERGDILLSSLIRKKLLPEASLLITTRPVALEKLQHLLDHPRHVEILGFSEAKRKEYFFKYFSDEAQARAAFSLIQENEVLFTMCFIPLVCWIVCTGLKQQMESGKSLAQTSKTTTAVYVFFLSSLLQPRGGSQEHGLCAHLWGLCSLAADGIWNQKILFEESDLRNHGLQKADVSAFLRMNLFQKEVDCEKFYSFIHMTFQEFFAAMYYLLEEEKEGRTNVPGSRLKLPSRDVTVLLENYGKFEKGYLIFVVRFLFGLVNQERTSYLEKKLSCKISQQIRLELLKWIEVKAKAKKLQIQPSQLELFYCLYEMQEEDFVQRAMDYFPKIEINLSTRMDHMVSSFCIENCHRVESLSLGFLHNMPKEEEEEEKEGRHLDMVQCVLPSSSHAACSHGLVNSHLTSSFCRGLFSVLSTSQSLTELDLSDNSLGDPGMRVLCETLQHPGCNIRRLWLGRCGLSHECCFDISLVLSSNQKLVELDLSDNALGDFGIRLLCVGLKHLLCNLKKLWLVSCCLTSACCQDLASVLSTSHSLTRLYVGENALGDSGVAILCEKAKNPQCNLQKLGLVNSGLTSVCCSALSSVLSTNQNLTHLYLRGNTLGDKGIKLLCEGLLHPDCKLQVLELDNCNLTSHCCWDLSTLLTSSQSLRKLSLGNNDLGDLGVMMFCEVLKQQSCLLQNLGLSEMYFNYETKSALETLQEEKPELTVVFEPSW

The compound `CCCS(=O)(=O)N/N=C(\C)c1nc2ccccc2[nH]1` registered an IC50 in series [1] greater than 50 µM.

For `C/C(=N\NS(=O)(=O)c1ccc([N+](=O)[O-])cc1)c1nc2ccccc2o1`, the IC50 in series [1] is greater than 50 µM.

`C/C(=N\NS(=O)(=O)c1ccccc1)c1nc2ccccc2[nH]1` gave an IC50 in series [1] greater than 50 µM.

`O=C(/C=C/c1ccc(O)cc1)c1ccc(O)cc1O` [ISOLIQUIRITIGENIN] displayed a CC50 in series [2] of 250 µM. Moreover, the 50% inhibitory concentration (IC50) in series [3] was 10.1 µM.

`C/C(=N\NS(=O)(=O)c1ccc(Br)cc1)c1nc2ccccc2[nH]1` came in with an IC50 in series [1] greater than 50 µM.

`CCCCS(=O)(=O)N/N=C(\C)c1nc2ccccc2o1` returned an IC50 in series [1] greater than 50 µM.

In series [1], `C/C(=N\NS(=O)(=O)c1ccccc1)c1nc2ccccc2o1` showed an IC50 greater than 50 µM.

For `COc1ccc(S(=O)(=O)N/N=C(\C)c2nc3ccccc3[nH]2)cc1`, the IC50 in [1] was greater than 50 µM.

For `COc1ccc(S(=O)(=O)N/N=C(\C)c2nc3ccccc3o2)cc1`, the Activity is 1.8 in series [4]; 3.9 in series [5]; 6 in series [6]; 6.8 in [7]; 2.9 in series [8]; 4.5 in series [10]. Moreover, the Activity was found to be 2.2 in series [12]; 2.5 in [14]; 4.2 in [15]; 6.5 in series [16]; 5.5 in series [17]; 6 in series [21]. Besides, the Activity in series [23] was determined as 6.1; in [24] it was 5.4; in series [26], 5; in [27], 5.9; in [28], 1.6; in series [32], 4.9. The inhibition result in series [9], in series [19] and in series [29] was “Dose-dependent effect” in each case. Besides, in [11], the outcome was Active. The inhibition in vivo at 5 mg/kg worked out at 3.6% in series [13] and 19.6% in series [31]. The inhibition in vivo at 20 mg/kg amounted to 7.6% in series [18] and 44.1% in series [22]. The inhibition in vivo at 10 mg/kg in series [20] was 4.6%; in series [25] it was 30.6%. For the same compound, the 50% inhibitory concentration (IC50) in [1] was determined as 4.2 µM; in [3] it was 7.5 µM. In series [2], this compound registered a CC50 of 250 µM. The “inhibition (INH)” value in [30] is “Active”.

With `COc1ccc(C(=O)O/N=C(\C)c2nc3ccccc3[nH]2)cc1`, the IC50 in series [1] was greater than 50 µM.

The compound `C/C(=N\NS(=O)(=O)c1ccc(C)cc1)c1nc2ccccc2o1` displayed a CC50 in series [2] of 250 µM.

Regarding `Oc1ncnc2[nH]ncc12` [ALLOPURINOL], the outcome in series [33] was Active. In addition, the inhibition in vivo at 10 mg/kg in [20] was found to be 25.3%; in series [25], 47.9%.

Compound `C/C(=N\OC(=O)Cc1ccccc1)c1nc2ccccc2[nH]1` came in with an IC50 in series [1] greater than 50 µM.

In the case of `C/C(=N\NS(=O)(=O)c1ccc([N+](=O)[O-])cc1)c1nc2ccccc2[nH]1`, the IC50 in series [1] was greater than 50 µM.

`C/C(=N\NS(=O)(=O)c1cccc([N+](=O)[O-])c1)c1nc2ccccc2o1` yielded an IC50 in series [1] greater than 50 µM.

For `C/C(=N\NS(=O)(=O)c1ccc(Br)cc1)c1nc2ccccc2o1`, the IC50 in series [1] was greater than 50 µM.

`COc1cc2c(c(OC)c1OC)-c1ccc(OC)c(=O)cc1[C@@H](NC(C)=O)CC2` [COLCHICINE]: the inhibition result in series [34], in series [39] and in [42] was “Active” each time. In addition, the Activity in [35] was found to be 4.3; in series [36] it was 4; in series [37], 2.8; in [38], 3.5; in series [40], 2; in series [41] it was 4.9.

Source of the values: ChEMBL document CHEMBL4610050, “Development of novel NLRP3-XOD dual inhibitors for the treatment of gout” (Bioorg Med Chem Lett, 2020).
